According to PubChem BioAssay AID2060886 (Molecular Pharmacology Branch, DTP, NCI, 2025):
pIC50: −log10 of the molar value.

System: 653999-131-R-J2-PDC complex spheroids, growth inhibition
Assay: Anticancer human tumor 653999-131-R-J2-PDC patient-derived lung adenocarcinoma cell line growth inhibition [RAS]
Settings: for pIC50: curve of first compound; for viability, T/C: stronger effect = lower value
Outline: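 Multi-cell-type spheroids: tumor cells plus HUVEC endothelial cells and mesenchymal stem cells. RAS-pathway inhibitors were combined with targeted agents, each dosed in half-log steps down from clinical Cmax, or from 10 microM when Cmax was unknown.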

[1] = second compound 0.00316 µM, first compound 0.0316 µM
[2] = second compound 0.00316 µM, first compound 0.1 µM
[3] = second compound 0.00316 µM, first compound 0.316 µM
[4] = second compound 0.00316 µM, first compound 1 µM
[5] = second compound 0.00316 µM, first compound 3.16 µM
[6] = second compound 0.00316 µM, first compound 10 µM
[7] = second compound 0.01 µM, first compound 0.0316 µM
[8] = second compound 0.01 µM, first compound 0.1 µM
[9] = second compound 0.01 µM, first compound 0.316 µM
[10] = second compound 0.01 µM, first compound 1 µM
[11] = second compound 0.01 µM, first compound 3.16 µM
[12] = second compound 0.01 µM, first compound 10 µM
[13] = second compound 0.0316 µM, first compound 0.0316 µM
[14] = second compound 0.0316 µM, first compound 0.1 µM
[15] = second compound 0.0316 µM, first compound 0.316 µM
[16] = second compound 0.0316 µM, first compound 1 µM
[17] = second compound 0.0316 µM, first compound 3.16 µM
[18] = second compound 0.0316 µM, first compound 10 µM
[19] = second compound 0.1 µM, first compound 0.0316 µM
[20] = second compound 0.1 µM, first compound 0.1 µM
[21] = second compound 0.1 µM, first compound 0.316 µM
[22] = second compound 0.1 µM, first compound 1 µM
[23] = second compound 0.1 µM, first compound 3.16 µM
[24] = second compound 0.1 µM, first compound 10 µM
[25] = second compound 0.316 µM, first compound 0.0316 µM
[26] = second compound 0.316 µM, first compound 0.1 µM
[27] = second compound 0.316 µM, first compound 0.316 µM
[28] = second compound 0.316 µM, first compound 1 µM
[29] = second compound 0.316 µM, first compound 3.16 µM
[30] = second compound 0.316 µM, first compound 10 µM
[31] = second compound 1 µM, first compound 0.0316 µM
[32] = second compound 1 µM, first compound 0.1 µM
[33] = second compound 1 µM, first compound 0.316 µM
[34] = second compound 1 µM, first compound 1 µM
[35] = second compound 1 µM, first compound 3.16 µM
[36] = second compound 1 µM, first compound 10 µM
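Further: spheroids exposed to the agents for seven days before the readout.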

Compound: CC1(O)CCCC1n1c(=O)c(C(F)F)cc2cnc(NC3CCN(S(C)(=O)=O)CC3)nc21 (stereo not drawn) + C=CC(=O)N1CCN(c2nc(OCC3CCCN3C)nc3c(F)c(-c4nc(N)cc(C)c4C(F)(F)F)c(Cl)cc23)C(C)C1
- pIC50 (second compound 0.00316 µM): 5.25
- pIC50 (second compound 0.01 µM): 5.27
- pIC50 (second compound 0.0316 µM): 5.28
- pIC50 (second compound 0.1 µM): 5.25
- pIC50 (second compound 0.316 µM): 5.29
- pIC50 (second compound 1 µM): 5.20
- viability, T/C [1]: 74.3%
- viability, T/C [2]: 63.4%
- viability, T/C [3]: 57.5%
- viability, T/C [4]: 63.5%
- viability, T/C [5]: 75.9%
- viability, T/C [6]: 32.5%
- viability, T/C [7]: 82.5%
- viability, T/C [8]: 65.5%
- viability, T/C [9]: 56.6%
- viability, T/C [10]: 71.9%
- viability, T/C [11]: 68.8%
- viability, T/C [12]: 27.5%
- viability, T/C [13]: 77.6%
- viability, T/C [14]: 57.2%
- viability, T/C [15]: 63.4%
- viability, T/C [16]: 63.2%
- viability, T/C [17]: 68.5%
- viability, T/C [18]: 29%
- viability, T/C [19]: 78.4%
- viability, T/C [20]: 71.7%
- viability, T/C [21]: 54.4%
- viability, T/C [22]: 64.7%
- viability, T/C [23]: 76.3%
- viability, T/C [24]: 30.7%
- viability, T/C [25]: 86.3%
- viability, T/C [26]: 65.6%
- viability, T/C [27]: 67.2%
- viability, T/C [28]: 69.5%
- viability, T/C [29]: 66.4%
- viability, T/C [30]: 27.8%
- viability, T/C [31]: 78.3%
- viability, T/C [32]: 55.9%
- viability, T/C [33]: 71%
- viability, T/C [34]: 64.2%
- viability, T/C [35]: 68.4%
- viability, T/C [36]: 38.2%

Compound: CC(=O)OC12COC1CC(O)C1(C)C(=O)C(O)C3=C(C)C(OC(=O)C(O)C(NC(=O)OC(C)(C)C)c4ccccc4)CC(O)(C(OC(=O)c4ccccc4)C21)C3(C)C (stereo not drawn) + CCn1c(-c2cc(N3CCN(C)CC3)cnc2C(C)OC)c2c3cc(ccc31)-c1csc(n1)CC(NC(=O)C1CC1C)C(=O)N1CCCC(N1)C(=O)OCC(C)(C)C2
- pIC50 (second compound 0.000949 µM): > 7.50
- pIC50 (second compound 0.003 µM): > 7.50
- pIC50 (second compound 0.00949 µM): > 7.50
- pIC50 (second compound 0.03 µM): > 7.50
- pIC50 (second compound 0.0949 µM): > 7.50
- pIC50 (second compound 0.3 µM): > 7.50
- viability, T/C (second compound 0.000949 µM, first compound 0.0316 µM): 38.1%
- viability, T/C (second compound 0.000949 µM, first compound 0.1 µM): 39.4%
- viability, T/C (second compound 0.000949 µM, first compound 0.316 µM): 42.8%
- viability, T/C (second compound 0.000949 µM, first compound 1 µM): 43.5%
- viability, T/C (second compound 0.000949 µM, first compound 3.16 µM): 48.8%
- viability, T/C (second compound 0.000949 µM, first compound 10 µM): 51.6%
- viability, T/C (second compound 0.003 µM, first compound 0.0316 µM): 29.9%
- viability, T/C (second compound 0.003 µM, first compound 0.1 µM): 27%
- viability, T/C (second compound 0.003 µM, first compound 0.316 µM): 27.6%
- viability, T/C (second compound 0.003 µM, first compound 1 µM): 35.4%
- viability, T/C (second compound 0.003 µM, first compound 3.16 µM): 30.9%
- viability, T/C (second compound 0.003 µM, first compound 10 µM): 31.7%
- viability, T/C (second compound 0.00949 µM, first compound 0.0316 µM): 14.9%
- viability, T/C (second compound 0.00949 µM, first compound 0.1 µM): 21%
- viability, T/C (second compound 0.00949 µM, first compound 0.316 µM): 20.7%
- viability, T/C (second compound 0.00949 µM, first compound 1 µM): 21.9%
- viability, T/C (second compound 0.00949 µM, first compound 3.16 µM): 21.7%
- viability, T/C (second compound 0.00949 µM, first compound 10 µM): 19.1%
- viability, T/C (second compound 0.03 µM, first compound 0.0316 µM): 13.3%
- viability, T/C (second compound 0.03 µM, first compound 0.1 µM): 13.2%
- viability, T/C (second compound 0.03 µM, first compound 0.316 µM): 12.8%
- viability, T/C (second compound 0.03 µM, first compound 1 µM): 13.2%
- viability, T/C (second compound 0.03 µM, first compound 3.16 µM): 14%
- viability, T/C (second compound 0.03 µM, first compound 10 µM): 13.1%
- viability, T/C (second compound 0.0949 µM, first compound 0.0316 µM): 11.5%
- viability, T/C (second compound 0.0949 µM, first compound 0.1 µM): 12.1%
- viability, T/C (second compound 0.0949 µM, first compound 0.316 µM): 13.8%
- viability, T/C (second compound 0.0949 µM, first compound 1 µM): 10.6%
- viability, T/C (second compound 0.0949 µM, first compound 3.16 µM): 12.6%
- viability, T/C (second compound 0.0949 µM, first compound 10 µM): 12.2%
- viability, T/C (second compound 0.3 µM, first compound 0.0316 µM): 8.97%
- viability, T/C (second compound 0.3 µM, first compound 0.1 µM): 10.1%
- viability, T/C (second compound 0.3 µM, first compound 0.316 µM): 12%
- viability, T/C (second compound 0.3 µM, first compound 1 µM): 13.4%
- viability, T/C (second compound 0.3 µM, first compound 3.16 µM): 12.2%
- viability, T/C (second compound 0.3 µM, first compound 10 µM): 12.3%

Compound: CCC(CC)c1cc(NC2CCC(N)C2)n2nccc2n1 (stereo not drawn) + C#Cc1c(F)ccc2cc(O)cc(-c3ncc4c(N5CC6CCC(C5)N6)nc(OCC56CCCN5CC(F)C6)nc4c3F)c12
- pIC50 (second compound 0.0316 µM): 5.68
- pIC50 (second compound 0.1 µM): 5.74
- pIC50 (second compound 0.316 µM): 5.80
- pIC50 (second compound 1 µM): 5.89
- pIC50 (second compound 3.16 µM): 7.50
- pIC50 (second compound 10 µM): > 7.50
- viability, T/C [13]: 91.1%
- viability, T/C [14]: 110%
- viability, T/C [15]: 84.8%
- viability, T/C [16]: 105%
- viability, T/C [17]: 15.3%
- viability, T/C [18]: 28.7%
- viability, T/C [19]: 85.2%
- viability, T/C [20]: 101%
- viability, T/C [21]: 93.1%
- viability, T/C [22]: 80.6%
- viability, T/C [23]: 14.2%
- viability, T/C [24]: 28.3%
- viability, T/C [25]: 71.7%
- viability, T/C [26]: 75.5%
- viability, T/C [27]: 75.4%
- viability, T/C [28]: 72.3%
- viability, T/C [29]: 14.8%
- viability, T/C [30]: 17.3%
- viability, T/C [31]: 56.2%
- viability, T/C [32]: 57%
- viability, T/C [33]: 68.7%
- viability, T/C [34]: 59.2%
- viability, T/C [35]: 10.7%
- viability, T/C [36]: 25.3%
- viability, T/C (second compound 3.16 µM, first compound 0.0316 µM): 47.2%
- viability, T/C (second compound 3.16 µM, first compound 0.1 µM): 45%
- viability, T/C (second compound 3.16 µM, first compound 0.316 µM): 49.3%
- viability, T/C (second compound 3.16 µM, first compound 1 µM): 39.4%
- viability, T/C (second compound 3.16 µM, first compound 3.16 µM): 16%
- viability, T/C (second compound 3.16 µM, first compound 10 µM): 27.7%
- viability, T/C (second compound 10 µM, first compound 0.0316 µM): 36.2%
- viability, T/C (second compound 10 µM, first compound 0.1 µM): 33.5%
- viability, T/C (second compound 10 µM, first compound 0.316 µM): 20.9%
- viability, T/C (second compound 10 µM, first compound 1 µM): 31.6%
- viability, T/C (second compound 10 µM, first compound 3.16 µM): 9.65%
- viability, T/C (second compound 10 µM, first compound 10 µM): 13.1%

Compound: Cc1nc(N2CCC3(CC2)COC(C)C3N)c(CO)nc1Sc1ccnc(N)c1Cl (stereo not drawn) + C=CC(=O)N1CCN(c2nc(OCC3CCCN3C)nc3c(F)c(-c4nc(N)cc(C)c4C(F)(F)F)c(Cl)cc23)C(C)C1
- pIC50 (second compound 0.00316 µM): < 5.00
- pIC50 (second compound 0.01 µM): < 5.00
- pIC50 (second compound 0.0316 µM): < 5.00
- pIC50 (second compound 0.1 µM): < 5.00
- pIC50 (second compound 0.316 µM): < 5.00
- pIC50 (second compound 1 µM): < 5.00
- viability, T/C [1]: 81.4%
- viability, T/C [2]: 76.7%
- viability, T/C [3]: 77.9%
- viability, T/C [4]: 74.6%
- viability, T/C [5]: 83.3%
- viability, T/C [6]: 78.2%
- viability, T/C [7]: 90.5%
- viability, T/C [8]: 86.5%
- viability, T/C [9]: 78.3%
- viability, T/C [10]: 80.6%
- viability, T/C [11]: 86.9%
- viability, T/C [12]: 63.9%
- viability, T/C [13]: 87.2%
- viability, T/C [14]: 82.6%
- viability, T/C [15]: 93.1%
- viability, T/C [16]: 84.7%
- viability, T/C [17]: 78.1%
- viability, T/C [18]: 63.9%
- viability, T/C [19]: 103%
- viability, T/C [20]: 77.6%
- viability, T/C [21]: 90.2%
- viability, T/C [22]: 73.5%
- viability, T/C [23]: 77%
- viability, T/C [24]: 70%
- viability, T/C [25]: 92%
- viability, T/C [26]: 82%
- viability, T/C [27]: 82.9%
- viability, T/C [28]: 78.4%
- viability, T/C [29]: 80.7%
- viability, T/C [30]: 73.9%
- viability, T/C [31]: 105%
- viability, T/C [32]: 66.7%
- viability, T/C [33]: 74.8%
- viability, T/C [34]: 78.3%
- viability, T/C [35]: 67.3%
- viability, T/C [36]: 82.1%
